What was measured:
[1] = target: T1, ENPP1 (Homo sapiens (Human), UniProt P22413); experiment: ATP-Glo enzymatic assay (ATP substrate, AMP-Glo readout); assay type: biochemical; conditions: 25° C. for 60 min, 50 mM Tris pH 8.8
Procedure: (§1) Example A: Enzymatic Assay
(§2) • 1. Diluted compounds in DMSO by hand for 11 points, 3 folds dilution. Then transferred 0.02 μL compounds to 384 assay plate by ECHO. • 2. Added 2 μL specified concentration of ENPP1 to 384 assay plate. Centrifuged 1000 RPM for 1 min. • 3. Added 2 μL specified concentration of ATP to the assay plate. Centrifuged 1000 RPM for 1 min. • 4. Incubated at 25° C. for 60 min. • 5. Added 4 μL AMP-Glo Reagent to the assay plates. • 6. Centrifuged 1000 RPM for 1 min, incubate at 25° C. for 1 hours. • 7. Added 8 μL Kinase Detection Reagent to the assay plates. • 8. Centrifuged 1000 RPM for 1 min, incubated at 25° C. for 1 hours. The final assay reaction mixture contained a buffer of 50 mM Tris pH 8.8, 250 mM NaCl and 0.1% BSA • 9. Read on Envision for US LUM as RLU. • 10. Analyzed the raw data using the equation (V. Data analysis). cGAMP-Glo Assay: • 1. Diluted compounds in DMSO by hand for 11 points, 3 folds dilution. Then transferred 0.02 μL compounds to 384 assay plate by ECHO. • 2. Added 2 μL specified concentration of ENPP1 to 384 assay plate, centrifuged 1000 RPM for 1 min. • 3. Added 2 μL specified concentration of 2′3′-cGAMP to the assay plate, centrifuged 1000 RPM for 1 min. • 4. Incubated at 25° C. for 60 min. • 5. Added 4 μL AMP-Glo Reagent to the assay plates. • 6. Centrifuged 1000 RPM for 1 min, incubated at 25° C. for 1 hours. • 7. Added 8 μL Kinase Detection Reagent to the assay plates. • 8. Centrifuged 1000 RPM for 1 min, incubate at 25° C. for 1 hours. The final assay reaction mixture contained a buffer of 50 mM Tris pH 8.8, 250 mM NaCl and 0.1% BSA • 9. Read on Envision for US LUM as RLU. • 10. Analyzed the raw data using the equation (V. Data analysis).

[2] = target: T1, ENPP1; experiment: cGAMP-Glo enzymatic assay (2′3′-cGAMP substrate, AMP-Glo readout); assay type: biochemical; conditions: substrate 2′3′-cGAMP; 25° C. for 60 min; 50 mM Tris pH 8.8
Procedure: as §1, §2

T1 sequence (P22413 whole entry, species assumed): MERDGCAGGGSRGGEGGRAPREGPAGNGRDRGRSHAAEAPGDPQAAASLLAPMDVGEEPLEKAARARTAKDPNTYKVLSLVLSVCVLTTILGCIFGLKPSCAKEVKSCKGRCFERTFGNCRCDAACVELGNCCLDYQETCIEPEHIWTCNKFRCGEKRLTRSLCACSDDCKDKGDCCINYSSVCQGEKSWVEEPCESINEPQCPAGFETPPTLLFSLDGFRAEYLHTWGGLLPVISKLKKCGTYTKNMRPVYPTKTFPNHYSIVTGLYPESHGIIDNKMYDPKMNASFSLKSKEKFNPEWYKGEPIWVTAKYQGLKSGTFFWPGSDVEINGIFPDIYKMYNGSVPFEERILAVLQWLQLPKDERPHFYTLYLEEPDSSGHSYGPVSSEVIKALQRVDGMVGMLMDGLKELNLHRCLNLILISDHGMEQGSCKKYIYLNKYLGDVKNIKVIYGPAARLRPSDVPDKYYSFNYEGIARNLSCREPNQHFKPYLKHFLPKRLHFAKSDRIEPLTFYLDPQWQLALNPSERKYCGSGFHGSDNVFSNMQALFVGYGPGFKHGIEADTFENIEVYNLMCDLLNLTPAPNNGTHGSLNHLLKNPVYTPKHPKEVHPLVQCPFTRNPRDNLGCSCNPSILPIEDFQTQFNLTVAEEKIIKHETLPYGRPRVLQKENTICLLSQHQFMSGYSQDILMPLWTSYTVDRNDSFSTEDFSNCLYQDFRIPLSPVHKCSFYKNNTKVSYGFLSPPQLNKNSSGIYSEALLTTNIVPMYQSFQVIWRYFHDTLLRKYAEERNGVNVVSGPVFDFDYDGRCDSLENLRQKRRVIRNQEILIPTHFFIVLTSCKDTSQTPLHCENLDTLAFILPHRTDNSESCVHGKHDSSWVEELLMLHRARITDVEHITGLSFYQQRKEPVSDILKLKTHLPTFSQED

Compound	IC50 [1] [µM]	IC50 [2] [µM]
4-((6-cyano-2-methyl-7-phenyl-1H-imidazo[4,5-c]pyridin-1-yl)methyl)benzenesulfonamide [Example 41]	< 0.001	< 0.001
COc1ncc2c(C)cn(Cc3ccc(NS(N)(=O)=O)cc3)c2c1-c1ccn(C)n1 [Example 1, N-(4-((6-methoxy-3-methyl-7-(1-methyl-1H-pyrazol-3-yl)-1H-pyrrolo[3,2-c]pyridin-1-yl)methyl)phenyl) sulfamide]	0.1 to 1	0.01 to 0.1
Cc1ncc2ccn(Cc3ccc(NS(N)(=O)=O)cc3)c2c1-c1ccn(C)n1 [Example 2, N-(4-((6-methyl-7-(1-methyl-1H-pyrazol-3-yl)-1H-pyrrolo[3,2-c]pyridin-1-yl)methyl)phenyl) sulfamide]	> 1	0.1 to 1
COc1ncc2ccn(Cc3ccc(NS(N)(=O)=O)cc3)c2c1-c1ccn(C)n1 [Example 3, N-(4-((6-methoxy-7-(1-methyl-1H-pyrazol-3-yl)-1H-pyrrolo[3,2-c]pyridin-1-yl)methyl)phenyl) sulfamide]	> 1	0.1 to 1
COc1ncc2c(C)cn(Cc3c(F)cc(S(N)(=O)=O)cc3F)c2c1-c1ccn(C)n1 [Example 4, 3,5-difluoro-4-((6-methoxy-3-methyl-7-(1-methyl-1H-pyrazol-3-yl)-1H-pyrrolo[3,2-c]pyridin-1-yl)methyl)benzene sulfonamide]	0.001 to 0.01	< 0.001
COc1ncc2ccn(Cc3ccc(S(N)(=O)=O)cc3)c2c1-c1ccn(C)n1 [Example 5, 4-((6-methoxy-7-(1-methyl-1H-pyrazol-3-yl)-1H-pyrrolo[3,2-c]pyridin-1-yl)methyl)benzenesulfonamide]	0.01 to 0.1	0.001 to 0.01
COc1ncc2c(C)cn(Cc3ccc(S(N)(=O)=O)cc3)c2c1-c1ccn(C)n1 [Example 6, 4-((6-methoxy-3-methyl-7-(1-methyl-1H-pyrazol-3-yl)-1H-pyrrolo[3,2-c]pyridin-1-yl)methyl)benzenesulfonamide]	0.001 to 0.01	0.001 to 0.01
COc1ncc2ccn(Cc3c(F)cc(S(N)(=O)=O)cc3F)c2c1-c1ccn(C)n1 [Example 7, 3,5-difluoro-4-((6-methoxy-7-(1-methyl-1H-pyrazol-3-yl)-1H-pyrrolo[3,2-c]pyridin-1-yl)methyl)benzenesulfonamide]	0.001 to 0.01	0.001 to 0.01
COc1ncc2ccn(Cc3ccc(S(N)(=O)=O)cc3)c2c1-n1ccc(C)n1 [Example 8, 4-((6-methoxy-7-(3-methyl-1H-pyrazol-1-yl)-1H-pyrrolo[3,2-c]pyridin-1-yl)methyl)benzenesulfonamide]	0.01 to 0.1	0.01 to 0.1
COc1ncc2ccn(Cc3ccc(S(N)(=O)=O)cc3)c2c1-c1ccccc1 [Example 9, 4-((6-methoxy-7-phenyl-1H-pyrrolo[3,2-c]pyridin-1-yl)methyl)benzene sulfonamide]	< 0.001	< 0.001
COc1ncc2c(C)cn(Cc3ccc(S(N)(=O)=O)cc3)c2c1-c1ccccc1 [Example 10, 4-((6-methoxy-3-methyl-7-phenyl-1H-pyrrolo[3,2-c]pyridin-1-yl)methyl)benzene sulfonamide]	< 0.001	< 0.001
COc1ncc2ccn(Cc3ccc(S(N)(=O)=O)cc3)c2c1-c1cnn(C(F)(F)F)c1 [Example 11, 4-((6-methoxy-7-(1-(trifluoromethyl)-1H-pyrazol-4-yl)-1H-pyrrolo[3,2-c]pyridin-1-yl)methyl)benzenesulfonamide]	0.1 to 1	0.1 to 1
COc1ncc2c(C)cn(Cc3ccc(S(N)(=O)=O)cc3)c2c1-c1ccc(F)cc1 [Example 12]	0.01 to 0.1	0.01 to 0.1
COc1ncc2c(C)cn(Cc3ccc(S(N)(=O)=O)cc3)c2c1-c1ccccn1 [Example 13, 4-((6-methoxy-3-methyl-7-(pyridin-2-yl)-1H-pyrrolo[3,2-c]pyridin-1-yl)methyl)benzenesulfonamide]	0.001 to 0.01	0.001 to 0.01
Cc1ncc2c(C)cn(Cc3c(F)cc(S(N)(=O)=O)cc3F)c2c1-c1ccccc1 [Example 14, 4-[(3,6-dimethyl-7-phenylpyrrolo[3,2-c]pyridin-1-yl)methyl]-3,5-difluorobenzene-1-sulfonamide]	< 0.001	< 0.001
Cc1ncc2ccn(Cc3ccc(S(N)(=O)=O)cc3)c2c1-c1ccccc1 [Example 15, 4-((6-methyl-7-phenyl-1H-pyrrolo[3,2-c]pyridin-1-yl)methyl)benzene sulfonamide]	< 0.001	< 0.001
Cc1ncc2c(C)cn(Cc3ccc(S(N)(=O)=O)cc3)c2c1-c1ccccc1 [Example 16, 4-((3,6-dimethyl-7-phenyl-1H-pyrrolo[3,2-c]pyridin-1-yl)methyl)benzene sulfonamide]	< 0.001	< 0.001
Cc1ncc2c(C)cn(Cc3c(F)cc(S(N)(=O)=O)cc3F)c2c1-c1ccn(C)n1 [Example 17, 4-((3,6-dimethyl-7-(1-methyl-1H-pyrazol-3-yl)-1H-pyrrolo[3,2-c]pyridin-1-yl)methyl)-3,5-difluorobenzenesulfonamide]	0.001 to 0.01	0.001 to 0.01
Cc1ncc2c(C)cn(Cc3c(F)cc(S(N)(=O)=O)cc3F)c2c1-c1ccn(C(F)(F)F)n1 [Example 18, 4-((3,6-dimethyl-7-(1-(trifluoromethyl)-1H-pyrazol-3-yl)-1H-pyrrolo[3,2-c]pyridin-1-yl)methyl)-3,5-difluorobenzenesulfonamide]	0.1 to 1	0.01 to 0.1
COc1ncc2c(c1-c1ccccc1)n(Cc1ccc(S(N)(=O)=O)cc1)c(=O)n2C [Example 19, 4-[(6-methoxy-3-methyl-2-oxo-7-phenylimidazo[5,4-c]pyridin-1-yl)methyl]benzene-1-sulfonamide]	< 0.001	< 0.001
Cc1ncc2c(c1-c1ccccc1)n(Cc1ccc(S(N)(=O)=O)cc1)c(=O)n2C [Example 20, 4-((3,6-dimethyl-2-oxo-7-phenyl-2,3-dihydro-1H-imidazo[4,5-c]pyridin-1-yl)methyl)benzenesulfonamide]	< 0.001	< 0.001
COc1ncc2cnn(Cc3ccc(S(N)(=O)=O)cc3)c2c1-c1ccccc1 [Example 21, 4-((6-methoxy-7-phenyl-1H-pyrazolo[4,3-c]pyridin-1-yl)methyl)benzenesulfonamide]	0.01 to 0.1	0.001 to 0.01
COc1ncc2nc(C)n(Cc3ccc(S(N)(=O)=O)cc3)c2c1-c1ccccc1 [Example 22, 4-((6-methoxy-2-methyl-7-phenyl-1H-imidazo[4,5-c]pyridin-1-yl)methyl)benzenesulfonamide]	< 0.001	< 0.001
COc1ncc2ncn(Cc3ccc(S(N)(=O)=O)cc3)c2c1-c1ccccc1 [Example 23, 4-((6-methoxy-7-phenyl-1H-imidazo[4,5-c]pyridin-1-yl)methyl)benzenesulfonamide]	< 0.001	< 0.001
COc1ncc2nc(C)n(Cc3c(F)cc(S(N)(=O)=O)cc3F)c2c1-c1ccccc1 [Example 24, 3,5-difluoro-4-((6-methoxy-2-methyl-7-phenyl-1H-imidazo[4,5-c]pyridin-1-yl)methyl)benzenesulfonamide]	< 0.001	< 0.001
COc1ncc2nc(C)n(Cc3ccc(S(N)(=O)=O)cc3F)c2c1-c1ccccc1 [Example 25]	< 0.001	< 0.001

— patent publication US20250101019A1 (Insilico Medicine IP Limited, priority 2022, published 2025)
